Legend:
C57BL/6J male mice = assay: Hot plate model; format: in vivo; details: 10 mg/kg i.p.
Description: Thermal nociception in the hot plate test was assessed with a commercially available apparatus (Hotplate Analgesia Meter, Columbus Instruments) consisting of a metal plate to a constant temperature of 55.0 ± 0.1 °C. Mice were put into the hot plate testing instrument to adapt for at least 15 min. The device was connected to a manually operated timer that recorded the amount of time the mouse spent on the heated surface before showing signs of nociception (e.g., licked its paws or jumped), the cut-off time was 60 s. The baseline (basic pain threshold, the response was more than 25 s, and the jumping mice were excluded.) was calculated as the mean of three readings recorded before testing at intervals of 15 min. The time course of latency was then determined at 15, 30, 45, 60, 90, and 120 min after compound treatment. Data were analyzed as time-course curves of the percentage of maximum effect MPE% = (post drug latency − baseline latency) × 100/(cut-off time − baseline latency). C57BL/6J male mice obtained from The Jackson Laboratory (Bar Harbor, ME, USA) weighing 28 g were used for the hot plate test. Animal procedures were conducted following the rules and regulations of the Institutional Animal Care and Use Committee of the National Institute on Alcohol Abuse and Alcoholism (NIAAA) under the protocols of LPS-GK1.

mice = assay: LPS-induced acute lung injury (ALI) model; format: in vivo; details: 10 mg/kg i.p.
Description: LPS-induced acute lung injury induced by a single oropharyngeal instillation of lipopolysaccharide (LPS) (50 µg/mouse) in 16-week-old mice as described previously. Briefly, LPS (L4391, MilliporeSigma, Burlington, MA, USA) was dissolved in sterile saline and administered at 50 µg/mouse in 40 µL after anesthesia induced by ketamine/xylazine. The mice were studied 24 h after LPS or saline instillation.
BALF was collected from anesthetized mice by lavaging lungs two times with 0.8 mL Hanks’ balanced salt solution without calcium and magnesium (HBSS) (Sigma-Aldrich, St. Louis, MI, USA). Supernatants were collected as BALF for further analyses.
The number of cells in the BALF was estimated using an automated cell counter, the Countess II FL cell counter (Thermo Fisher Scientific Inc., Waltham, MA, USA).
Albumin levels were measured by the Mouse Albumin Elisa Assay kit (Cat # E99-134), which was obtained from Bethyl Laboratories. BALF samples from the LPS group were diluted at a 1:2000 ratio.
Total protein in BALF samples was measured using the Pierce BCA protein assay kit (Cat # 23225) as detailed in the product manual (Thermo Fisher Scientific).
The right middle lobe was immediately placed in an RNA later solution and stored at −80 °C until the RNA extraction procedure. RNA extraction was performed using RNeasy Mini Kits from Qiagen (Valencia, CA, USA). One microgram of total RNA was reverse transcribed to cDNA using an iScript cDNA synthesis kit (Bio-Rad, Hercules, CA, USA). Expression of the target genes was quantified using gene-specific primers and PowerSYBRGreen master mix (Thermo Fisher Scientific) in a QuantStudio 3 Real-Time PCR instrument (Thermo Fisher Scientific). Predesigned mouse IL-6 (QT00098875), TNF-α (QT00104006), IL-1β (QT01048355), CXCL1 (QT00115647), CCL2 (QT00167832), CXCL3 (QT00151599) and CXCL9 (QT00097062) primers were purchased from Qiagen (Valencia, CA, USA). Fold changes in gene expression relative to the housekeeping gene TATA-Box Binding Protein (Tbp, QT00198443) were determined. Gene expression values were calculated based on the […] method.

human recombinant sEH = target: T1, human recombinant sEH (Homo sapiens, UniProt P34913); assay: Fluorescence-based sEH activity assay (PHOME substrate), human enzyme; format: biochemical; details: for IC50: dose-dependent assay, read-out: Human sEH Inhibition IC50
T1 construct: purchased Cayman Chemical 10011671
T1 sequence (P34913 1-555): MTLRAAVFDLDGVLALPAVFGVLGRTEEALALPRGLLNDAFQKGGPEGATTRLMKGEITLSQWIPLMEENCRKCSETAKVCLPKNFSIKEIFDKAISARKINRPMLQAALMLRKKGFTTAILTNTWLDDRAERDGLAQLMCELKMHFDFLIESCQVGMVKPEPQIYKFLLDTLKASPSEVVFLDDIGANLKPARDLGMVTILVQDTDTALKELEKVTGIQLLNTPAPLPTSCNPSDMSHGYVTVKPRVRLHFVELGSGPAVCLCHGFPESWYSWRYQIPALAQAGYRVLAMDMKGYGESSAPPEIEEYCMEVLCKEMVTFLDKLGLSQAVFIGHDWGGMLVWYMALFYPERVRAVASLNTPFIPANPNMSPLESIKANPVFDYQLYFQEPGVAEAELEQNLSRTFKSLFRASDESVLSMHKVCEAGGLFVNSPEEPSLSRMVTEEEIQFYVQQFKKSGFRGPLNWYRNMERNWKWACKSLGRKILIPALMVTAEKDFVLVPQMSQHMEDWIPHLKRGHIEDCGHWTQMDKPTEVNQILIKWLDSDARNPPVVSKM
Description: A fluorescence-based sEH activity assay provided a convenient method for screening human epoxide hydrolase inhibitors. The assay utilized (3-Phenyl-oxiranyl)-acetic acid cyano-(6-methoxy-naphthalen-2-yl)-methyl ester (PHOME) as a substrate. […] The inhibitory function of the compounds on sEH activity was tested as detailed in the product manual from Cayman Chemical. Briefly, 3 mL sEH assay buffer (10×) was diluted with 27 mL HPLC-grade water. This final assay buffer, 25 mM bis-tris (pH 7.0), was used in the assay and for the dilution of the soluble epoxide hydrolase (sEH) enzyme. Amounts of 12 μL each of human and mouse recombinant sEH were thawed on ice. Prior to assaying, 588 μL cold assay buffer was added directly to the enzyme vial. An amount of 190 μL assay buffer and 5 μL solvent (40% DMSO in assay buffer) were added to the background wells. In the 100% initial activity wells, 185 μL assay buffer, 5 μL sEH, and 5 μL solvent were added. In inhibitor wells, 185 μL assay buffer, 5 μL solution of the synthesized compounds, and 5 μL of recombinant enzyme solution were added.
(§1) Average fluorescence (AF) of the background wells and 100% initial activity in the wells and of each of the inhibitors were determined. The background AF was subtracted from the 100% initial activity and inhibitor AFs. The % sEH activity is calculated as (inhbitited AF/% 100 initial activity) × 100.
(§2) Multiple concentrations of the inhibitors were tested followed by plotting of the percent activity as a function of inhibitor concentration to determine the IC50 values.

mouse recombinant sEH = target: T2, mouse recombinant sEH (Mus musculus, UniProt P34914); assay: Fluorescence-based sEH activity assay (PHOME substrate), mouse enzyme; format: biochemical; details: dose-dependent assay; read-out: Mouse sEH Inhibition IC50
T2 sequence (P34914 1-554): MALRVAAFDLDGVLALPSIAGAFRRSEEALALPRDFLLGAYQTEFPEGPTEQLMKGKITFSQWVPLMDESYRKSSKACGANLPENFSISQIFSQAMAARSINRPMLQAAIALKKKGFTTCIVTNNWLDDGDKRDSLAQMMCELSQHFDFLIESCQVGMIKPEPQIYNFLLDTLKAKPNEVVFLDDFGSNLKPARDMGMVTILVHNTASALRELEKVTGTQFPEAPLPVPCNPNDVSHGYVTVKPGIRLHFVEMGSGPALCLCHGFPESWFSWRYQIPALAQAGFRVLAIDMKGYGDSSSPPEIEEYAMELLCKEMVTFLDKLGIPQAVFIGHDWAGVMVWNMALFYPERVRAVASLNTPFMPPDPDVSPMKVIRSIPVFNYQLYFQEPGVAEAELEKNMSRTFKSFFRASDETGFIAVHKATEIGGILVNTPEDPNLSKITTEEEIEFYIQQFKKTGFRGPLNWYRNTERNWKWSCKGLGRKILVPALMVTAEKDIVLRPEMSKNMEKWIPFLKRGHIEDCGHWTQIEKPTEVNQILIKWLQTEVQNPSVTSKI
Description: A fluorescence-based sEH activity assay provided a convenient method for screening human epoxide hydrolase inhibitors. The assay utilized (3-Phenyl-oxiranyl)-acetic acid cyano-(6-methoxy-naphthalen-2-yl)-methyl ester (PHOME) as a substrate. […] The inhibitory function of the compounds on sEH activity was tested as detailed in the product manual from Cayman Chemical. Briefly, 3 mL sEH assay buffer (10×) was diluted with 27 mL HPLC-grade water. This final assay buffer, 25 mM bis-tris (pH 7.0), was used in the assay and for the dilution of the soluble epoxide hydrolase (sEH) enzyme. Amounts of 12 μL each of human and mouse recombinant sEH were thawed on ice. Prior to assaying, 588 μL cold assay buffer was added directly to the enzyme vial. An amount of 190 μL assay buffer and 5 μL solvent (40% DMSO in assay buffer) were added to the background wells. In the 100% initial activity wells, 185 μL assay buffer, 5 μL sEH, and 5 μL solvent were added. In inhibitor wells, 185 μL assay buffer, 5 μL solution of the synthesized compounds, and 5 μL of recombinant enzyme solution were added. To start the reaction, 5 μL of PHOME was added to each well at a final concentration of 0.25 mM. The microwell plate was shaken carefully for 10 s and covered with a plate cover.
as §1, §2

[1] = In vivo pharmacokinetic experiment; set-up: species or system C57BL/6J mice; details: male, C57BL/6J, mouse, serum, other: oral and intraperitoneal; mice, oral and intraperitoneal administration, 10 mg/kg; read-out: plasma half-life
Description: Twenty 8–9-week-old male C57BL/6J mice were taken for the in vivo pharmacokinetic experiment. They were divided into four groups, each containing five mice. Each group was used for either oral or intraperitoneal administration of compound 4f or 15a. Both the compounds were reconstituted in 5% DMSO, 5% TWEEN 80 in saline water (pH = 7.4). The mice were orally and intraperitoneally administered compounds at 10 mg/kg dose. Blood samples were collected at 0, 0.5, 1, 2, 4, 6, and 24 h after administration of the compound, and serum was isolated with the compound. For the pharmacokinetic study, 10 μL of serum samples from mice were extracted with a 2:1 mixture of LC/MS-grade chloroform and methanol, followed by intermittent vortexing, and then centrifuged at 4000 rpm for 10 min at 4 °C. Thereafter, the supernatant was collected and analyzed by LC−MS/MS to measure the concentrations of compounds 4f and 15a in the serum.

O=C(O)CCCCCCCCCCCNC(=O)NC12CC3CC(CC(C3)C1)C2 [AUDA, 12-(3-adamantan-1-ylureido)dodecanoic acid, reference compound]
analgesic effect in hot plate assay (C57BL/6J male mice): none of the sEH inhibitors, including AUDA, showed any analgesic effect
effect on LPS-induced increase in total protein in BALF (mice): neither AUDA nor novel sEH inhibitors’ (4f and 4l) effect
number of cells in bronchoalveolar lavage (BAL) (mice): similarly attenuated the number of cells in BAL
LPS-induced lung gene expression of interleukin 1B (IL-1B) (mice; qPCR): attenuated
LPS-induced lung gene expression of interleukin 6 (IL-6) (mice; qPCR): attenuated
lung gene expression of CXCL1 (mice; qPCR): similarly attenuated

O=C(NC12CC3CC(CC(C3)C1)C2)NS(=O)(=O)c1ccc(Cl)cc1 [Compound 4k]
Human sEH % Inhibition (human recombinant sEH): 96.47%
IC50 (human recombinant sEH): 2 nM
IC50 (mouse recombinant sEH): > 1000 nM

O=S(=O)(NC(=S)NC12CC3CC(CC(C3)C1)C2)c1ccccc1 [Compound 6a, N-((adamantan-1-yl)carbamothioyl)benzenesulfonamide]
Human sEH % Inhibition (human recombinant sEH): 84.56%
IC50 (human recombinant sEH): 130 nM
IC50 (mouse recombinant sEH): > 1000 nM

O=S(=O)(NC(=S)NC12CC3CC(CC(C3)C1)C2)c1ccc(OC(F)(F)F)cc1 [Compound 6d, N-((adamantan-1-yl)carbamothioyl)-4-(trifluoromethoxy)benzenesulfonamide]
Human sEH % Inhibition (human recombinant sEH): 96.24%
IC50 (human recombinant sEH): 4.66 nM
IC50 (mouse recombinant sEH): 110 nM

CC12CC3CC(C)(C1)CC(NC(=O)NS(=O)(=O)c1ccc(OC(F)(F)F)cc1)(C3)C2 [Compound 15a, N-((3,5-dimethyladamantan-1-yl)carbamoyl)-4-(trifluoromethoxy)benzenesulfonamide]
Human sEH % Inhibition (human recombinant sEH): 92.06%
IC50 (human recombinant sEH): 3.87 nM
half-life [1]: < 2 h
IC50 (mouse recombinant sEH): 22 nM

CC12CC3CC(C)(C1)CC(NC(=O)NS(=O)(=O)c1ccc4ccccc4c1)(C3)C2 [Compound 15b, N-((3,5-dimethyladamantan-1-yl)carbamoyl)naphthalene-2-sulfonamide]
Human sEH % Inhibition (human recombinant sEH): 47.05%
IC50 (human recombinant sEH): 950 nM
IC50 (mouse recombinant sEH): > 1000 nM

O=C(NC1CCN(C(=O)NC23CC4CC(CC(C4)C2)C3)CC1)NS(=O)(=O)c1ccc(OC(F)(F)F)cc1 [Compound 18, N-(1-((adamantan-1-yl)carbamoyl)piperidin-4-yl)-N′-((4-(trifluoromethoxy)phenyl)sulfonyl)carbamimidic acid]
Human sEH % Inhibition (human recombinant sEH): 60.80%
IC50 (human recombinant sEH): 38.7 nM
IC50 (mouse recombinant sEH): 710 nM
